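Five compound concentrations were applied to cells in 96-well plates for 48 hours; endpoints were derived by simple linear interpolation of the resulting dose-response curve. TGI marks complete inhibition of growth.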
How the values were obtained:
Test in all cases: inhibition of tumour cell growth, NCI panel, 48 h
MDA-N = test system: MDA-N
TK-10 renal = test system: TK-10 renal
CAKI-1 renal = test system: CAKI-1 renal
SK-MEL-5 melanoma = test system: SK-MEL-5 melanoma
T-47D breast = test system: T-47D breast
OVCAR-3 ovarian = test system: OVCAR-3 ovarian
HCC-2998 colon = test system: HCC-2998 colon
UACC-257 melanoma = test system: UACC-257 melanoma
NCI-H23 lung = test system: NCI-H23 lung
SF-539 CNS = test system: SF-539 CNS
SF-268 CNS = test system: SF-268 CNS
ACHN renal = test system: ACHN renal
A498 renal = test system: A498 renal
HL-60(TB) leukemia = test system: HL-60(TB) leukemia
UACC-62 melanoma = test system: UACC-62 melanoma
SR leukemia = test system: SR leukemia
SK-OV-3 ovarian = test system: SK-OV-3 ovarian
HCT-116 colon = test system: HCT-116 colon
DLD-1 colon = test system: DLD-1 colon
LXFL 529 NSCLC = test system: LXFL 529 NSCLC

| SMILES | TGI (MDA-N) [µM] | TGI (TK-10 renal) [µM] | TGI (CAKI-1 renal) [µM] | TGI (SK-MEL-5 melanoma) [µM] | TGI (T-47D breast) [µM] | TGI (OVCAR-3 ovarian) [µM] | TGI (HCC-2998 colon) [µM] | TGI (UACC-257 melanoma) [µM] | TGI (NCI-H23 lung) [µM] | TGI (SF-539 CNS) [µM] | TGI (SF-268 CNS) [µM] | TGI (ACHN renal) [µM] | TGI (A498 renal) [µM] | TGI (HL-60(TB) leukemia) [µM] | TGI (UACC-62 melanoma) [µM] | TGI (SR leukemia) [µM] | TGI (SK-OV-3 ovarian) [µM] | TGI (HCT-116 colon) [µM] | TGI (DLD-1 colon) [µM] | TGI (LXFL 529 NSCLC) [µM] |
| --- | --- | --- | --- | --- | --- | --- | --- | --- | --- | --- | --- | --- | --- | --- | --- | --- | --- | --- | --- | --- |
| C=CCn1c(=O)c(C)cn(COCCO)c1=O | > 100 | > 100 | > 100 | > 100 | > 100 | > 100 | > 100 | > 100 | > 100 | > 100 | > 100 | > 100 |  |  |  |  |  |  |  |  |
| Fc1ccc(C(OCCN2CCN(CCCc3ccccc3)CC2)c2ccc(F)cc2)cc1 | 14.3 | 18.7 | 13.5 | 10.1 | 19.3 | 15.9 | 11.7 | 8.62 | 15.3 |  | 14.6 | 17.4 | 19.7 | 16 | 21.4 | 10 | 18.9 |  |  |  |
| COC(=O)[C@H]1C=NN[C@@H]1C(=O)N1[C@H]2CC3CC[C@@]2(CS1(=O)=O)C3(C)C |  | > 100 | > 100 | > 100 |  |  | > 100 | > 100 | > 100 | > 100 | > 100 | > 100 | > 100 | > 100 |  | > 100 | > 100 | > 100 |  |  |
| CCOC(=O)C(C#N)(Cc1c[nH]c2ccccc12)NC(C)=O (configuration not stated) |  | > 100 | > 100 | > 100 |  | > 100 | > 100 | > 100 | > 100 |  | > 100 | > 100 |  | > 100 | > 100 |  | > 100 | > 100 | > 100 | > 100 |

Source: PubChem BioAssay (NCI)
